Data: the SangsterLogP compilation

Assay: method code SF-HPLC, from DOI: 10.1111/j.2042-7158.1987.tb06262.x, PMID: 2884287
Conditions: pH 3.0

| logD | SMILES |
| --- | --- |
| -0.57 | Cn1c(=O)[nH]c2[nH]c(=O)[nH]c2c1=O |
| -0.37 | Cn1c(=O)c2c([nH]c(=O)n2C)n(C)c1=O |
| -0.22 | Cn1c(=O)[nH]c2[nH]c(=O)n(C)c2c1=O |
| -1.18 | Cn1c(=O)[nH]c2[nH]c(=O)[nH]c(=O)c21 |
| -1.33 | Cn1c(=O)[nH]c(=O)c2c1[nH]c(=O)n2C |

More lines, now with the values behind:

| SMILES | logD |
| --- | --- |
| Cn1c(=O)c2[nH]c(=O)[nH]c2n(C)c1=O | -0.52 |
| Cn1c(=O)[nH]c2nc[nH]c2c1=O | -0.27 |
| CN(C=O)c1c(N)[nH]c(=O)n(C)c1=O | -2.03 |
| Cn1c(=O)[nH]c(=O)c2[nH]c(=O)[nH]c21 | -1.08 |
| Cn1c(N)c(NC=O)c(=O)n(C)c1=O | -0.64 |
| Cn1cnc2[nH]c(=O)[nH]c(=O)c21 | -0.89 |
| CN(C=O)c1c(N)n(C)c(=O)n(C)c1=O | -1.32 |
| CN(C=O)c1c(N)n(C)c(=O)[nH]c1=O | -1.3 |
